Measured values from patent publication US10899738B2 (THE REGENTS OF THE UNIVERSITY OF MICHIGAN, priority 2016, dated 2021).
Like-named read-outs stand apart in the source and are kept apart here.

What was measured:
menin protein = menin protein (Homo sapiens (Human), UniProt O00255); assay: biochemical; assay type: binding; settings: FP competitive binding; menin protein 4 nM, FAM-MM2 probe 2 nM; read-out: Menin Binding Affinity IC50
Summary of the method: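 Competitive fluorescence polarization assay using FAM-labelled MLL1 peptide probe FAM-MM2 (2 nM final) preincubated with menin (4 nM final) in PBS with 0.02% bovine γ-globulin, 4% DMSO and 0.01% Triton X-100. Compounds were added and incubated 30 min at room temperature. IC50 came from nonlinear regression of competition curves, with Ki also derived.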

[1] = Cell growth inhibition, CellTiter-Glo Luminescent Cell Viability Assay; assay type: cell-based
Summary of the method: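 Cells seeded at 2,000/well with serially diluted compound and cultured 4 days at 37 °C, 5% CO2. Viability read by CellTiter-Glo luminescence; IC50 derived from dose-response.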

[2] = MOLM-13, 96 h, read-out: Cell Growth Inhibition IC50 (μM) MOLM13, MOLM13 cells, 4 days, CellTiter-Glo
[3] = MV4-11, 96 h, read-out: Cell Growth Inhibition IC50 (μM) MV4, 11, MV4, 11 cells, 4 days, CellTiter-Glo
[4] = MOLM-13, 96 h, MOLM13 cells, 4 days, CellTiter-Glo, read-out: Cell Growth Inhibition IC50 (μM) MOLM13
[5] = MV4-11, 96 h, MV4, 11 cells, 4 days, CellTiter-Glo, read-out: Cell Growth Inhibition IC50 (μM) MV4, 11

Chain of menin protein (O00255 whole entry): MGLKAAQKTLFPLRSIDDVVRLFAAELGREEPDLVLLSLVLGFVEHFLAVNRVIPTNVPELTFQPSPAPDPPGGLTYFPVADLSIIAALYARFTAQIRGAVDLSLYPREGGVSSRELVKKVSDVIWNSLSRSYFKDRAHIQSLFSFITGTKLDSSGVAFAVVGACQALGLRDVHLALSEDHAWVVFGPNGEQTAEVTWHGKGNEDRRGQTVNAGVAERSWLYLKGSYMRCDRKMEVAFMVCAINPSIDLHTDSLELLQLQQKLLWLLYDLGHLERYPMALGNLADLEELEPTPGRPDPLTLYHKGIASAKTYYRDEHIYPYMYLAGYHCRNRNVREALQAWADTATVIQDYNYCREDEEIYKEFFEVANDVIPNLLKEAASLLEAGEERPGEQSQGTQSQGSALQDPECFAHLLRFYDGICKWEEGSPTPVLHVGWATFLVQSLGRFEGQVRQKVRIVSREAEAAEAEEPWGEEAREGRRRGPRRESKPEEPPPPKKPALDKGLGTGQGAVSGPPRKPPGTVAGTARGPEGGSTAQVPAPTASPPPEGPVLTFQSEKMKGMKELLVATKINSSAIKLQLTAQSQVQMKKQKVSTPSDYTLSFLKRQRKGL

SMILES | IC50 (menin protein) [nM] | IC50 [1, 2] [µM] | IC50 [1, 3] [µM] | IC50 [1, 4] [µM] | IC50 [1, 5] [µM]
CNC(=O)O[C@H]1CCC[C@@H]1C(Cn1cccc1)(c1ccccc1)C1CCN(CC2CN(c3ccc(S(=O)(=O)c4ccccc4)cc3)C2)CC1 (mixture of isomers) [compound 359, rac-(1S,2R)-2-(1-phenyl-1-(1-((1-(4-(phenylsulfonyl)phenyl)azetidin-3-yl)methyl)piperidin-4-yl)-2-(1H-pyrrol-1-yl)ethyl)cyclopentyl methylcarbamate] | 12 | 1.46 | 0.43 | – | –
COC(=O)N[C@H]1CCC[C@@H]1C(Cn1ccnc1)(c1ccccc1)C1CCN(CC2CN(c3ccc(S(=O)(=O)c4cnn(C)c4)cc3)C2)CC1 (mixture of isomers) [compound 392, methyl rac-((1S,2R)-2-(2-(1H-imidazol-1-yl)-1-(1-((1-(4-((1-methyl-1H-pyrazol-4-yl)sulfonyl)phenyl)azetidin-3-yl)methyl)piperidin-4-yl)-1-phenylethyl)cyclopentyl) carbamate] | 7 | 0.76 ± 0.32 | 0.084 ± 0.032 | – | –
CNC(=O)N[C@H]1CCC[C@@H]1C1(C2CCN(CC3CN(c4ccc(S(=O)(=O)C5CC5)cc4)C3)CC2)CNCc2ccccc21 (mixture of isomers) [compound 285, rac-1-((1S,2R)-2-(4-(1-((1-(4-(cyclopropylsulfonyl)phenyl)azetidin-3-yl)methyl)piperidin-4-yl)-1,2,3,4-tetrahydroisoquinolin-4-yl)cyclopentyl)-3-methylurea] | 9 | 12.4 | 2.48 | – | –
CNC(=O)O[C@H]1CCC[C@@H]1C(C#N)(c1ccccc1)C1CCN(CC2(C)CN(c3ccc(S(=O)(=O)c4cnn(C)c4)cc3)C2)CC1 (mixture of isomers) [compound 372, rac-(1S,2R)-2-(cyano(1-((3-methyl-1-(4-((1-methyl-1H-pyrazol-4-yl)sulfonyl)phenyl)azetidin-3-yl)methyl)piperidin-4-yl)(phenyl)methyl)cyclopentyl methylcarbamate] | 48 | 5.01 | 2.03 | – | –
O=S(=O)(c1ccc(N2CC(CN3CCC(C4(C5CCCC5)NCCc5ccccc54)CC3)C2)cc1)C1CC1 (stereo not drawn) [compound 135, 1-cyclopentyl-1-(1-((1-(4-(cyclopropylsulfonyl)phenyl)azetidin-3-yl)methyl)piperidin-4-yl)-1,2,3,4-tetrahydroisoquinoline] | 25 | – | – | 2.1 ± 1 | 1.3 ± 0.4
CN1Cc2ccccc2C(C2CCCC2)(C2CCN(CC3CN(c4ccc(C#N)cc4)C3)CC2)C1 (stereo not drawn) [compound 45, 4-(3-((4-(4-cyclopentyl-2-methyl-1,2,3,4-tetrahydroisoquinolin-4-yl)piperidin-1-yl)methyl)azetidin-1-yl)benzonitrile] | 27 | – | – | 5 | 0.845 ± 0.436
CCN1Cc2ccccc2C(C2CCCC2)(C2CCN(CC3CN(c4ccc(S(=O)(=O)C5CC5)cc4)C3)C(C)C2)C1 (stereo not drawn) [compound 94, 4-cyclopentyl-4-(1-((1-(4-(cyclopropylsulfonyl)phenyl)azetidin-3-yl)methyl)-2-methylpiperidin-4-yl)-2-ethyl-1,2,3,4-tetrahydroisoquinoline] | 29 | – | – | 2.3 | 2
CC(=O)N[C@@H]1CCC[C@H]1C1(C2CCN(CC3CN(c4ccc(S(=O)(=O)c5ccncc5)cc4)C3)CC2)CN(C)Cc2ccccc21 (mixture of isomers) [compound 272, rac-N-((1R,2S)-2-(2-methyl-4-(1-((1-(4-(pyridin-4-ylsulfonyl)phenyl)azetidin-3-yl)methyl)piperidin-4-yl)-1,2,3,4-tetrahydroisoquinolin-4-yl)cyclopentyl)acetamide] | 180 | 2.97 | 4.29 ± 1.45 | – | –
CC(=O)N[C@H]1CCC[C@@H]1C1(C2CCN(CC3CN(c4ccc(S(=O)(=O)c5cnn(C)c5)cc4)C3)CC2)CNCc2ccccc21 (mixture of isomers) [compound 286, rac-N-((1S,2R)-2-(4-(1-((1-(4-((1-methyl-1H-pyrazol-4-yl)sulfonyl)phenyl)azetidin-3-yl)methyl)piperidin-4-yl)-1,2,3,4-tetrahydroisoquinolin-4-yl)cyclopentyl)acetamide] | 4 | 5.69 | 0.48 | – | –
c1cnc(N2CC(CN3CCC(C4(C5CCCC5)NCCc5ccccc54)CC3)C2)nc1 (stereo not drawn) [compound 111, 1-cyclopentyl-1-(1-((1-(pyrimidin-2-yl)azetidin-3-yl)methyl)piperidin-4-yl)-1,2,3,4-tetrahydroisoquinoline] | 46200 | – | – | 96.2 | 14.4
COC(=O)N[C@H]1CCC[C@@H]1C(C#N)(c1ccccc1)C1CCN(CC2CN(c3ccc(S(=O)(=O)c4ccccc4)cc3)C2)CC1 (mixture of isomers) [compound 347, methyl (rac-(1S,2R)-2-(cyano(phenyl)(1-((1-(4-(phenylsulfonyl)phenyl)azetidin-3-yl)methyl)piperidin-4-yl)methyl)cyclopentyl) carbamate] | 14 | 0.44 | 0.36 | – | –
CNC(=O)O[C@H]1CCC[C@@H]1C(C#N)(c1ccccc1)C1CCN(CC2CN(c3ccc(C(F)(F)F)cc3)C2)CC1 (mixture of isomers) [compound 367, rac-(1S,2R)-2-(cyano(phenyl)(1-((1-(4-(trifluoromethyl)phenyl)azetidin-3-yl)methyl)piperidin-4-yl)methyl)cyclopentyl methylcarbamate] | 30 | 2.96 | 1.66 | – | –
CCN1Cc2ccccc2C(C2CCCC2)(C2CCN(CC3CN(c4ccc(S(=O)(=O)c5cccnc5)cc4)C3)CC2)C1 (stereo not drawn) [compound 152, 4-cyclopentyl-2-ethyl-4-(1-((1-(4-(pyridin-3-ylsulfonyl)phenyl)azetidin-3-yl)methyl)piperidin-4-yl)-1,2,3,4-tetrahydroisoquinoline] | 9 | – | – | 0.49 | 0.46
O=S(=O)(c1ccncc1)c1ccc(N2CC(CN3CCC(C4(C5CCCC5)CNCc5ccccc54)CC3)C2)cc1 (stereo not drawn) [compound 51, 4-cyclopentyl-4-(1-((1-(4-(pyridin-4-ylsulfonyl)phenyl)azetidin-3-yl)methyl)piperidin-4-yl)-1,2,3,4-tetrahydroisoquinoline] | 8 | – | – | 1.46 | 0.67
CC(C)N1Cc2ccccc2C(C2CCCC2)(C2CCN(CC3CN(c4ccc(S(=O)(=O)c5ccncc5)cc4)C3)CC2)C1 (stereo not drawn) [compound 48, 4-cyclopentyl-2-isopropyl-4-(1-((1-(4-(pyridin-4-ylsulfonyl)phenyl)azetidin-3-yl)methyl)piperidin-4-yl)-1,2,3,4-tetrahydroisoquinoline] | 7 | – | – | 2.8 | 0.908
CCc1nccn1CC(c1ccccc1)(C1CCN(CC2CN(c3ccc(C#N)cc3)C2)CC1)[C@H]1CCC[C@@H]1OC(=O)NC (mixture of isomers) [compound 408, rac-(1S,2R)-2-(1-(1-((1-(4-cyanophenyl)azetidin-3-yl)methyl)piperidin-4-yl)-2-(2-ethyl-1H-imidazol-1-yl)-1-phenylethyl)cyclopentyl methylcarbamate] | 3 | 0.017 ± 0.007 | 0.005 ± 0.002 | – | –
CCN1Cc2ccccc2C(C2CCCC2)(C2CCN(CC3(F)CN(c4ccc(S(=O)(=O)C5CC5)cc4)C3)CC2)C1 (stereo not drawn) [compound 141, 4-cyclopentyl-4-(1-((1-(4-(cyclopropylsulfonyl)phenyl)-3-fluoroazetidin-3-yl)methyl)piperidin-4-yl)-2-ethyl-1,2,3,4-tetrahy36droisoquinoline] | 28 | – | – | 54.7 | 4.7
CNC(=O)N[C@@H]1CCC[C@H]1C1(C2CCN(CC3CN(c4ccc(S(=O)(=O)c5ccncc5)cc4)C3)CC2)CN(C)Cc2ccccc21 (mixture of isomers) [compound 278, rac-1-methyl-3-((1R,2S)-2-(2-methyl-4-(1-((1-(4-(pyridin-4-ylsulfonyl)phenyl)azetidin-3-yl)methyl)piperidin-4-yl)-1,2,3,4-tetrahydroisoquinolin-4-yl)cyclopentyl)urea] | 296 | 2.12 | 2.27 | – | –
CCN1Cc2ccccc2C(C2CCN(CC3CN(c4ccc(S(=O)(=O)c5cnn(C)c5)cc4)C3)CC2)([C@H]2CCC[C@@H]2NC(C)=O)C1 (mixture of isomers) [Cpd. No. 292, rac-N-((1S,2R)-2-(2-ethyl-4-(1-((1-(4-((1-methyl-1H-pyrazol-4-yl)sulfonyl)phenyl)azetidin-3-yl)methyl)piperidin-4-yl)-1,2,3,4-tetrahydroisoquinolin-4-yl)cyclopentyl)acetamide] | 11 | 1.34 | 0.13 | – | –
CCS(=O)(=O)c1ccc(N2CC(CN3CCC(C4(C5CCCC5)NCCc5ccccc54)CC3)C2)cc1 (stereo not drawn) [compound 133, 1-cyclopentyl-1-(1-((1-(4-(ethylsulfonyl)phenyl)azetidin-3-yl)methyl)piperidin-4-yl)-1,2,3,4-tetrahydroisoquinoline] | 30 | – | – | 2.9 ± 0.8 | 1.7 ± 1
CN1Cc2ccccc2C(C2CCN(CC3CN(c4ccc(S(=O)(=O)c5ccncc5)cc4)C3)CC2)([C@H]2CCC[C@@H]2OC(N)=O)C1 (mixture of isomers) [compound 219, rac-(1S,2R)-2-(2-methyl-4-(1-((1-(4-(pyridin-4-ylsulfonyl)phenyl)azetidin-3-yl)methyl)piperidin-4-yl)-1,2,3,4-tetrahydroisoquinolin-4-yl)cyclopentyl carbamate] | 3 | 0.236 | 0.074 ± 0.011 | – | –
